Converted amounts (≈) assume the structure as drawn. The source made the active and inactive calls. No cut-off for these calls is given here.
How the values were obtained:
Plasmodium berghei [1] = experiment: Antimalarial activity against Plasmodium berghei infected in mouse assessed as increase in mean survival days of host at 40 mg/kg, sc administered 72 hrs after infection relative to control; type: functional; settings: route subcutaneous
Plasmodium berghei [2] = experiment: Antimalarial activity against Plasmodium berghei infected in mouse assessed as increase in mean survival days of host at 20 mg/kg, sc administered 72 hrs after infection relative to control; type: functional; settings: route subcutaneous
Plasmodium gallinaceum [3] = experiment: Antimalarial activity against sporozoite-induced Plasmodium gallinaceum infected in white leghorn chicken assessed as disease cure from parasite infection at 320 mg/kg, sc administered 72 hrs after infection; type: functional, organism-based; set-up: dose 320 mg/kg
Plasmodium gallinaceum [4] = experiment: Antimalarial activity against sporozoite-induced Plasmodium gallinaceum infected in white leghorn chicken assessed as disease cure from parasite infection at 160 mg/kg, sc administered 72 hrs after infection; type: functional, organism-based; set-up: dose 160 mg/kg
Plasmodium berghei [5] = experiment: Antimalarial activity against Plasmodium berghei infected in mouse assessed as disease cure from parasite infection at 640 mg/kg, sc administered 72 hrs after infection; type: functional, organism-based; set-up: dose 640 mg/kg
Plasmodium berghei [6] = experiment: Antimalarial activity against Plasmodium berghei infected in mouse assessed as disease cure from parasite infection at 320 mg/kg, sc administered 72 hrs after infection; type: functional, organism-based; set-up: dose 320 mg/kg
Plasmodium berghei [7] = experiment: Antimalarial activity against Plasmodium berghei infected in mouse assessed as disease cure from parasite infection at 80 mg/kg, sc administered 72 hrs after infection; type: functional, organism-based; set-up: dose 80 mg/kg
Plasmodium berghei [8] = experiment: Antimalarial activity against Plasmodium berghei infected in mouse assessed as increase in mean survival days of host at 160 mg/kg, sc administered 72 hrs after infection relative to control; type: functional; settings: route subcutaneous
Shigella sonnei = experiment: Antibacterial activity against Shigella sonnei C-10 by gradient plate test; type: functional
Staphylococcus aureus [9] = experiment: Antibacterial activity against drug-resistant Staphylococcus aureus S18713 by gradient plate test; type: functional
Plasmodium berghei [10] = experiment: Antimalarial activity against Plasmodium berghei infected in mouse assessed as increase in mean survival days of host at 80 mg/kg, sc administered 72 hrs after infection relative to control; type: functional; settings: route subcutaneous
[11] = test system: Mycobacterium tuberculosis; experiment: Antibacterial activity against Mycobacterium tuberculosis H37Ra by gradient plate test; type: functional
Escherichia coli = experiment: Antibacterial activity against Escherichia coli Vogel by gradient plate test; type: functional
Staphylococcus aureus [12] = experiment: Antibacterial activity against Staphylococcus aureus UC-96 by gradient plate test; type: functional
Pseudomonas aeruginosa = experiment: Antibacterial activity against Pseudomonas aeruginosa 28 by gradient plate test; type: functional
Enterococcus faecalis = experiment: Antibacterial activity against Streptococcus faecalis MGH-2 by gradient plate test; type: functional
Plasmodium gallinaceum [13] = experiment: Antimalarial activity against sporozoite-induced Plasmodium gallinaceum infected in white leghorn chicken assessed as disease cure from parasite infection at 80 mg/kg, sc administered 72 hrs after infection; type: functional, organism-based; set-up: dose 80 mg/kg
Plasmodium berghei [14] = experiment: Antimalarial activity against Plasmodium berghei infected in mouse assessed as disease cure from parasite infection at 160 mg/kg, sc administered 72 hrs after infection; type: functional, organism-based; set-up: dose 160 mg/kg
Plasmodium berghei [15] = experiment: Antimalarial activity against Plasmodium berghei infected in mouse assessed as disease cure from parasite infection at 40 mg/kg, sc administered 72 hrs after infection; type: functional, organism-based; set-up: dose 40 mg/kg
Plasmodium berghei [16] = experiment: Antimalarial activity against Plasmodium berghei infected in mouse assessed as disease cure from parasite infection at 20 mg/kg, sc administered 72 hrs after infection; type: functional, organism-based; set-up: dose 20 mg/kg
Plasmodium gallinaceum [17] = experiment: Antimalarial activity against trophozoite-induced Plasmodium gallinaceum infected in white leghorn chicken assessed as disease cure from parasite infection at 160 mg/kg, sc administered 72 hrs after infection; type: functional, organism-based; set-up: dose 160 mg/kg
Plasmodium gallinaceum [18] = experiment: Antimalarial activity against trophozoite-induced Plasmodium gallinaceum infected in white leghorn chicken assessed as disease cure from parasite infection at 320 mg/kg, sc administered 72 hrs after infection; type: functional, organism-based; set-up: dose 320 mg/kg
Plasmodium gallinaceum [19] = experiment: Antimalarial activity against trophozoite-induced Plasmodium gallinaceum infected in white leghorn chicken assessed as increase in mean survival days of host at 40 mg/kg, sc administered 72 hrs after infection relative to control; type: functional; settings: route subcutaneous
Plasmodium gallinaceum [20] = experiment: Antimalarial activity against trophozoite-induced Plasmodium gallinaceum infected in white leghorn chicken assessed as increase in mean survival days of host at 160 mg/kg, sc administered 72 hrs after infection relative to control; type: functional; settings: route subcutaneous
Plasmodium gallinaceum [21] = experiment: Antimalarial activity against trophozoite-induced Plasmodium gallinaceum infected in white leghorn chicken assessed as increase in mean survival days of host at 20 mg/kg, sc administered 72 hrs after infection relative to control; type: functional; settings: route subcutaneous
Plasmodium gallinaceum [22] = experiment: Antimalarial activity against trophozoite-induced Plasmodium gallinaceum infected in white leghorn chicken assessed as increase in mean survival days of host at 10 mg/kg, sc administered 72 hrs after infection relative to control; type: functional; settings: route subcutaneous
Plasmodium gallinaceum [23] = experiment: Antimalarial activity against trophozoite-induced Plasmodium gallinaceum infected in white leghorn chicken assessed as increase in mean survival days of host at 320 mg/kg, sc administered 72 hrs after infection relative to control; type: functional; settings: route subcutaneous
Plasmodium gallinaceum [24] = experiment: Antimalarial activity against trophozoite-induced Plasmodium gallinaceum infected in white leghorn chicken assessed as increase in mean survival days of host at 80 mg/kg, sc administered 72 hrs after infection relative to control; type: functional; settings: route subcutaneous
Plasmodium gallinaceum [25] = experiment: Antimalarial activity against trophozoite-induced Plasmodium gallinaceum infected in white leghorn chicken assessed as increase in mean survival days of host at 1.25 mg/kg, sc administered 72 hrs after infection relative to control; type: functional; settings: route subcutaneous
Plasmodium berghei [26] = experiment: Antimalarial activity against Plasmodium berghei infected in mouse assessed as increase in mean survival days of host at 10 mg/kg, sc administered 72 hrs after infection relative to control; type: functional; settings: route subcutaneous
Plasmodium berghei [27] = experiment: Antimalarial activity against Plasmodium berghei infected in mouse assessed as increase in mean survival days of host at 5 mg/kg, sc administered 72 hrs after infection relative to control; type: functional; settings: route subcutaneous
Plasmodium gallinaceum [28] = experiment: Antimalarial activity against trophozoite-induced Plasmodium gallinaceum infected in white leghorn chicken assessed as increase in mean survival days of host at 5 mg/kg, sc administered 72 hrs after infection relative to control; type: functional; settings: route subcutaneous
Plasmodium berghei [29] = experiment: Antimalarial activity against Plasmodium berghei infected in mouse assessed as increase in mean survival days of host at 2.5 mg/kg, sc administered 72 hrs after infection relative to control; type: functional; settings: route subcutaneous
Plasmodium gallinaceum [30] = experiment: Antimalarial activity against trophozoite-induced Plasmodium gallinaceum infected in white leghorn chicken assessed as increase in mean survival days of host at 2.5 mg/kg, sc administered 72 hrs after infection relative to control; type: functional; settings: route subcutaneous
Plasmodium berghei [31] = experiment: Antimalarial activity against Plasmodium berghei infected in mouse assessed as increase in mean survival days of host at 1.25 mg/kg, sc administered 72 hrs after infection relative to control; type: functional; settings: route subcutaneous
Plasmodium gallinaceum [32] = experiment: Antimalarial activity against trophozoite-induced Plasmodium gallinaceum infected in white leghorn chicken assessed as increase in mean survival days of host at 0.63 mg/kg, sc administered 72 hrs after infection relative to control; type: functional; settings: route subcutaneous
Plasmodium berghei [33] = experiment: Antimalarial activity against Plasmodium berghei infected in mouse assessed as increase in mean survival days of host at 320 mg/kg, sc administered 72 hrs after infection relative to control; type: functional; settings: route subcutaneous

Compound | MST (Plasmodium berghei [1]) [days] | MST (Plasmodium berghei [2]) [days] | Activity (Plasmodium berghei [5]) | Activity (Plasmodium berghei [6]) | Activity (Plasmodium berghei [7]) | MST (Plasmodium berghei [8]) [days] | MIC (Shigella sonnei) [µg/mL] | MIC (Staphylococcus aureus [9]) [µg/mL] | MST (Plasmodium berghei [10]) [days] | MIC [11] [µg/mL] | MIC (Escherichia coli) [µg/mL] | MIC (Staphylococcus aureus [12]) [µg/mL] | MIC (Pseudomonas aeruginosa) [µg/mL] | MIC (Enterococcus faecalis) [µg/mL] | Activity (Plasmodium berghei [14]) | Activity (Plasmodium berghei [15]) | MST (Plasmodium gallinaceum [19]) [days] | MST (Plasmodium gallinaceum [20]) [days] | MST (Plasmodium gallinaceum [21]) [days] | MST (Plasmodium gallinaceum [22]) [days] | also measured
Nc1nc(N)c2c(Cl)c(Sc3cccc(C(F)(F)F)c3)ccc2n1 | 14.7 | 5.9 | Active | Active | Active | 24.9 | 2 (≈ 5.39 µM) | < 0.25 | 19.9 | 10 (≈ 27 µM) | 0.5 (≈ 1.35 µM) | < 0.25 | > 25 | < 0.25 | Active | Active |  |  |  |  | Activity (Plasmodium gallinaceum [3]): Active; Activity (Plasmodium gallinaceum [4]): Active; Activity (Plasmodium gallinaceum [13]): Active
CN(Cc1ccc(Cl)c(Cl)c1)c1ccc2nc(N)nc(N)c2c1 |  |  | Active | Active | Active |  |  |  |  |  |  |  |  |  | Active | Active |  |  |  |  | Activity (Plasmodium berghei [16]): Active; Activity (Plasmodium gallinaceum [17]): Active; Activity (Plasmodium gallinaceum [18]): Active
Nc1nc(N)c2cc(NCc3ccc(Cl)c(Cl)c3)ccc2n1 |  |  |  |  |  |  |  |  |  |  |  |  |  |  |  |  | 12.1 | 15.3 | 7 | 2.2 | MST (Plasmodium gallinaceum [23]): 16.6 days; MST (Plasmodium gallinaceum [24]): 12.9 days
Nc1nc(N)c2cc(Sc3cccc4ccccc34)ccc2n1 | 14.5 | 10.7 | Active | Active | Active |  | 20 (≈ 62.8 µM) | 5 (≈ 15.7 µM) | 18.4 | > 25 | 15 (≈ 47.1 µM) | 2.5 (≈ 7.85 µM) | > 25 | 10 (≈ 31.4 µM) | Active |  |  |  | 17.4 | 12.4 | MST (Plasmodium gallinaceum [25]): 7.2 days; MST (Plasmodium berghei [26]): 7.9 days; MST (Plasmodium berghei [27]): 1.9 days; MST (Plasmodium gallinaceum [28]): 11.8 days; MST (Plasmodium berghei [29]): 1.1 days; MST (Plasmodium gallinaceum [30]): 9 days; MST (Plasmodium berghei [31]): 0.5 days; MST (Plasmodium gallinaceum [32]): 2.2 days
Nc1nc(N)c2cc(Sc3ccccc3Cl)ccc2n1 | 0.5 | 0.5 |  | Active |  | 10.9 | 2 (≈ 6.61 µM) | < 0.25 | 8.1 |  | < 0.25 | < 0.25 | > 25 | < 0.25 | Active |  | 7.6 | 19.8 | 6 | 0 | MST (Plasmodium berghei [26]): 0.3 days; MST (Plasmodium berghei [27]): 0.3 days; MST (Plasmodium berghei [33]): 18.9 days; MST (Plasmodium gallinaceum [23]): 20.8 days; MST (Plasmodium gallinaceum [24]): 10.2 days

— ChEMBL document CHEMBL3272271, “Folate antagonists. 13. 2,4-Diamino-6-](alpha,alpha,alpha-trifluoro-m-tolyl)thio]quinazoline and related 2,4-diamino-6-[(phenyl- and naphthyl)thio]quinazolines, a unique class of antimetabolites with extraordinary antimalarial and antibacterial effects” (J Med Chem, 1978)
